Article PMC13342671 (Nature Communications, 2026)

How the values were obtained:
Type in all cases: cell-based, Human
A549-p53^Y220C cells [1] = assay: SA-β-galactosidase senescence stain; details: 3 µM, 6-day treatment
A549-p53^Y220C cells [2] = assay: Apoptosis FACS; details: 3 µM
[3] = test system: p53 pathway genes in BxPC-3 cells; assay: RNA sequencing / GSEA in BxPC-3 cells; details: 3 µM, 4 h

Structure (SMILES)	SA-β-gal senescence staining (in words) (A549-p53^Y220C cells [1])	apoptosis induction (in words) (A549-p53^Y220C cells [2])	share of the top 116 p53 target genes with significantly increased expression [3]
Cc1sc2c(c1C)C(c1ccc(Cl)cc1)=N[C@@H](CC(=O)OC(C)(C)C)c1nnc(C)n1-2 [JQ1]	relatively few senescent cells	slightly less apoptosis	57.0%
CCn1c2ccc(CNCCOCCOCCOCCn3cc(COc4ccc(CCc5nc6cc(-c7c(C)noc7C)ccc6n5CCN5CCOCC5)cc4F)nn3)cc2c2ccc(-c3cc(C)cs3)cc21 [MS78]	–	–	22.8%
